The assay addresses T1, GST-tagged ROR gamma ligand binding domain (LBD) (Homo sapiens, UniProt P51449).
T1 construct: purchased Invitrogen
T1 sequence (P51449 269-508 limits assumed): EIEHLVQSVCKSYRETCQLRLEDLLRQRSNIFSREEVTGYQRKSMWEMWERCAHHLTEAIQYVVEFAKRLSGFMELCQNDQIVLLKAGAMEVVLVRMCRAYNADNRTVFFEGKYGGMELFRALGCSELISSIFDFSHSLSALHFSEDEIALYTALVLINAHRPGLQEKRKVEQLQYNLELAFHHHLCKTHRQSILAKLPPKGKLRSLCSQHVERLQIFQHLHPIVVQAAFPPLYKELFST
The experiment in a line: TR-FRET assay for ROR gamma (LanthaScreen co-activator peptide recruitment). In kind it is biochemical. As to conditions: for inhibition at 1 µM: compound concentration 1 μM; for inhibition at 1 µM / inhibition at 10 µM: TR-FRET ratio 520/495, percent of control; for inhibition at 10 µM: compound concentration 10 μM; for pIC50: from dose response curve, nonlinear regression, read-out: IC50 range. An excerpt: The compounds described herein were screened for ROR gamma modulator activity using the TR-FRET assay (LanthaScreen™ available from Invitrogen of Carlsbad, Calif.) as described in JBC 2011, 286, 26: 22707-10; and Drug Metabolism and Disposition 2009, 37, 10: 2069-78.
Binding of the co-activator peptide, causes an increase in the TR-FRET signal while binding of an antagonist decreases the recruitment of the co-activator peptide, causing a decrease in the TR-FRET signal compared to control with no compound. The assay was performed using a two-step procedure, pre-incubation step with the compound followed by the detection step on addition of the anti-GST tagged terbium (Tb) and fluorescein tagged fluorophores as the acceptor.
Test compounds or reference compounds such as T0901317 (Calbiochem) were dissolved in dimethylsulfoxide (DMSO) to prepare 10.0 mM stock solutions and diluted to the desired concentration. The final concentration of DMSO in the reaction was 4% (v/v). The assay mixture was prepared by mixing 10 nM of the GST-tagged ROR gamma ligand binding domain (LBD) in the assay buffer containing 25 mM HEPES (pH 7.4), 100 mM NaCl, 5 mM DTT and 0.01% BSA with or without the desired concentration of the compound. The reaction was incubated at 22° C. for 1 hour. The pre-incubation step was terminated by addition of the detection mixture containing 300 nM Fluorescein-D22 co-activator peptide and 10 nM lantha screen Tb-anti GST antibody into the reaction mixture.
After shaking for 5 minutes the reaction was further incubated for 1 hour at room temperature and read at 4° C. on an Infinite F500 reader as per the kit instructions (Invitrogen). The inhibition of test compound was calculated based on the TR-FRET ratio of 520/495. The activity was calculated as a percent of control reaction. IC50 values were calculated from dose response curve by nonlinear regression analysis using GraphPad Prism software.
(In general: TR-FRET usually uses a lanthanide donor and a delayed reading to cut background.)

pIC50: −log10 of the molar value.

Consider `CCC(F)(F)c1ccc(CC(=O)Nc2ccc(-c3cnn(C(C)(C)C)c3-c3ccc(F)cc3)cc2)cc1` [Example 21, N-(4-(1-(tert-Butyl)-5-(4-fluorophenyl)-1H-pyrazol-4-yl)phenyl)-2-(4-(1,1-difluoropropyl)phenyl)acetamide], for which the inhibition – broadly, the share of the control response that was lost under treatment – at 1 µM was found to be 37.4% and the inhibition at 10 µM came to 38.3%.
The corresponding values for `CC(O)C(F)(F)c1ccc(CC(=O)Nc2ccc(-c3cnn(C(C)(C)C)c3-c3ccc(F)cc3)cc2)cc1` (stereo not drawn) [Example 22, N-(4-(1-(tert-Butyl)-5-(4-fluorophenyl)-1H-pyrazol-4-yl)phenyl)-2-(4-(1,1-difluoro-2-hydroxypropyl)phenyl)acetamide] are 46.7% and 56.2%.
The corresponding values for `CCC(F)(F)c1ccc(CC(=O)Nc2ccc(-c3nccnc3-c3cnn(C)c3)cc2)cc1` [Example 23, 2-(4-(1,1-Difluoropropyl)phenyl)-N-(4-(3-(1-methyl-1H-pyrazol-4-yl)pyrazin-2-y1)phenyl)acetamide] are 36.6% and 68.6%.
For `CCC(F)(F)c1ccc(CC(=O)Nc2ccc(-c3nccnc3N3CCN(C(C)=O)CC3)cc2)cc1` [Example 24, N-(4-(3-(4-Acetylpiperazin-1-yl)pyrazin-2-yl)phenyl)-2-(4-(1,1-difluoropropyl)phenyl)acetamide], in that order: 61.6% and 83.6%.
Take `CCC(F)(F)c1ccc(CC(=O)Nc2ccc(-c3nccnc3-c3ccc(=O)n(C)c3)cc2)cc1` [Example 25, 2-(4-(1,1-Difluoropropyl)phenyl)-N-(4-(3-(1-methyl-6-oxo-1,6-dihydropyridin-3-yl)pyrazin-2-yl)phenyl)acetamide]: the inhibition at 1 µM was 18.9% and the inhibition at 10 µM came to 59.7%.
On to `CCC(F)(F)c1ccc(CC(=O)Nc2ccc(-c3nccnc3-c3ccc(Cl)cc3)cc2F)cc1` [Example 26, N-(4-(3-(4-Chlorophenyl)pyrazin-2-yl)-2-fluorophenyl)-2-(4-(1,1-difluoropropyl)phenyl)acetamide], for which the inhibition at 1 µM came out at 71.9%; the inhibition at 10 µM was determined as 79.6%; the pIC50 (commonly the IC50 on a negative log10 scale, so that one unit is a factor of ten) is 6.30 to 7.00.
As to `CCC(F)(F)c1ccc(CC(=O)Nc2ccc(-c3nccnc3-c3ccc(OC)cc3)cc2)cc1` [Example 27, 2-(4-(1,1-Difluoropropyl)phenyl)-N-(4-(3-(4-methoxyphenyl)pyrazin-2-yl)phenyl)acetamide], the inhibition at 1 µM amounted to 78.6%, the inhibition at 10 µM worked out at 83.5% and the negative-log IC50 (pIC50) is above 7.30.
As for `CCC(F)(F)c1ccc(CC(=O)Nc2ccc(-n3nc(C(F)(F)F)cc3-c3ccccc3Cl)cc2)cc1` [Example 29, N-(4-(5-(2-Chlorophenyl)-3-(trifluoromethyl)-1H-pyrazol-1-yl)phenyl)-2-(4-(1,1-difluoropropyl)phenyl)acetamide], the inhibition at 1 µM turned out to be 77.1%, the inhibition at 10 µM was 79.8% and the pIC50 was above 7.30.
The corresponding values for `CCC(F)(F)c1ccc(CC(=O)Nc2ccc(-c3ncccc3-c3ccccc3Cl)cc2)cc1` [Example 30, N-(4-(3-(2-Chlorophenyl)pyridin-2-yl)phenyl)-2-(4-(1,1-difluoropropyl)phenyl)acetamide] are 81.3%, 82.5% and above 7.30.
Take `CCC(F)(F)c1ccc(CC(=O)Nc2ccc(-c3nccnc3-c3ccccc3C)cc2)cc1` [Example 31]: the inhibition at 1 µM was 77.7%, the inhibition at 10 µM came out at 81.7% and the pIC50 is above 7.30.
With `CCC(F)(F)c1ccc(CC(=O)Nc2ccc(-c3nccnc3N3CCN(C)CC3)cc2)cc1` [Example 32, 2-(4-(1,1-Difluoropropyl)phenyl)-N-(4-(3-(4-methylpiperazin-1-yl)pyrazin-2-yl)phenyl)acetamide], the inhibition at 1 µM worked out at 15.3% and the inhibition at 10 µM came to 65.1%.
For the compound `CCN1CCN(c2nccnc2-c2ccc(NC(=O)Cc3ccc(C(F)(F)CC)cc3)cc2)CC1` [Example 33, 2-(4-(1,1-Difluoropropyl)phenyl)-N-(4-(3-(4-ethylpiperazin-1-yl)pyrazin-2-yl)phenyl)acetamide], the inhibition at 1 µM is 27.3% and the inhibition at 10 µM was found to be 75.8%.
The corresponding values for `CCC(F)(F)c1ccc(CC(=O)Nc2ccc(-c3cccnc3-c3ccc(Cl)cc3)cc2)cc1` [Example 34, N-(4-(2-(4-Chlorophenyl)pyridin-3-yl)phenyl)-2-(4-(1,1-difluoropropyl)phenyl)acetamide] are 57.9% and 66.8%.
For the compound `CCC(F)(F)c1ccc(CC(=O)Nc2ccc(-c3cnccc3-c3ccc(Cl)cc3)cc2)cc1` [Example 35, N-(4-(4-(4-Chlorophenyl)pyridin-3-yl)phenyl)-2-(4-(1,1-difluoropropyl)phenyl)acetamide], the inhibition at 1 µM was determined as 72.8%, the inhibition at 10 µM was 73.3% and the negative logarithm of the IC50 (pIC50) is 6.30 to 7.00.
As to `CCC(F)(F)c1ccc(CC(=O)Nc2ccc(-c3nccnc3N3C[C@@H](C)O[C@@H](C)C3)cc2)cc1` [Example 36, 2-(4-(1,1-Difluoropropyl)phenyl)-N-(4-(3-((25,6R)-2,6-dimethylmorpholino)pyrazin-2-yl)phenyl)acetamide], the inhibition at 1 µM is 2.6% and the inhibition at 10 µM stood at 8.3%.
As for `CC(O)C(F)(F)c1ccc(CC(=O)Nc2ccc(-c3nccnc3-c3ccccc3Cl)cc2)cc1` (stereo not drawn) [Example 37, N-(4-(3-(2-Chlorophenyl)pyrazin-2-yl)phenyl)-2-(4-(1,1-difluoro-2-hydroxypropyl)phenyl)acetamide], the inhibition at 1 µM was determined as 71.1%, the inhibition at 10 µM was found to be 73.5% and the pIC50 is above 7.30.
The corresponding values for `CCC(F)(F)c1ccc(CC(=O)Nc2ccc(-n3nc(C)cc3-c3ccc(Cl)cc3Cl)cc2)cc1` [Example 38, N-(4-(5-(2,4-Dichlorophenyl)-3-methyl-1H-pyrazol-1-yl)phenyl)-2-(4-(1,1-difluoropropyl)phenyl)acetamide] are 70.7%, 74.9% and 6.30 to 7.00.
In the case of `CC(O)C(F)(F)c1ccc(CC(=O)Nc2ccc(-c3nccnc3-c3ccc(F)cc3Cl)cc2)cc1` (stereo not drawn) [Example 39, N-(4-(3-(2-Chloro-4-fluorophenyl)pyrazin-2-yl)phenyl)-2-(4-(1,1-difluoro-2-hydroxypropyl)phenyl)acetamide], the inhibition at 1 µM came to 65.5% and the inhibition at 10 µM amounted to 72.8%.
Turning to `CCc1ccccc1-c1nccnc1-c1ccc(NC(=O)Cc2ccc(C(F)(F)C(C)O)cc2)cc1` (stereo not drawn) [Example 40, 2-(4-(1,1-Difluoro-2-hydroxypropyl)phenyl)-N-(4-(3-(2-ethylphenyl)pyrazin-2-yl)phenyl)acetamide], the inhibition at 1 µM was determined as 71.4%, the inhibition at 10 µM stood at 76.9% and the pIC50 is above 7.30.
In the case of `CCC(F)(F)c1ccc(CC(=O)Nc2ccc(-c3nccnc3N3CCN(CCOC)CC3)cc2)cc1` [Example 41, 2-(4-(1,1-Difluoropropyl)phenyl)-N-(4-(3(4-(2-methoxyethyl)piperazin-1-yl)pyrazin-2-yl)phenyl)acetamide], the inhibition at 1 µM turned out to be 4.2% and the inhibition at 10 µM was found to be 48.7%.
The corresponding values for `CCC(F)(F)c1ccc(CC(=O)Nc2ccc(-c3nccnc3N3CCN(C(C)=O)CC3C)cc2)cc1` (stereo not drawn) [Example 42, N-(4-(3-(4-Acetyl-2-methylpiperazin-1-yl)pyrazin-2-yl)phenyl)-2-(4-(1,1-difluoropropyl)phenyl)acetamide] are 51.9% and 76.1%.
Take `CCC(F)(F)c1ccc(CC(=O)Nc2ccc(-c3nccnc3-c3ccc(F)cc3C)cc2)cc1` [Example 44, 2-(4-(1,1-Difluoropropyl)phenyl)-N-(4-(3-(4-fluoro-2-methylphenyl)pyrazin-2-yl)phenyl)acetamide]: the inhibition at 1 µM was 76.9%, the inhibition at 10 µM stood at 84.1% and the negative logarithm of the IC50 (pIC50) is above 7.30.
The corresponding values for `CCC(F)(F)c1ccc(CC(=O)Nc2ccc(-c3nccnc3-c3ccc(F)cc3Cl)cc2)cc1` [Example 45, N-(4-(3-(2-Chloro-4-fluorophenyl)pyrazin-2-yl)phenyl)-2-(4-(1,1-difluoropropyl)phenyl)acetamide] are 81.1%, 80.8% and above 7.30.

For the origin of these results see patent US10344024B2, “Compounds as ROR gamma modulators” (Glenmark Pharmaceuticals S.A., priority 2015, dated 2019).
